Experimental findings from US20080253996A1, “Use of Sdf-1 for the Treatment and/or Prevention of Neurological Diseases” (LABORATORIES SERONO SA, priority 2005, published 2008) are described below.

Holding throughout (format): in vivo, rat
The subject of experiment [1] is STZ-rats. As to the kind of experiment: STZ diabetic neuropathy, morphometric analysis of sciatic nerve and skin biopsy. The note with it: day 40 post STZ; for density of intra-epidermal nerve fibers: vs vehicle. As to the method: Morphometric analysis was performed at the end of the study. The animals were anesthetized by IP injection of 60 mg/kg Imalgéne 500®. A 5 mm-segment of sciatic nerve was excised for histology. The tissue was fixed overnight with 4% glutaraldehyde (Sigma, L'Isle d'Abeau-Chesnes, France) solution in phosphate buffer solution (pH 7.4) and maintained in 30% sucrose at +4° C. until use. The nerve sample was fixed in 2% osmium tetroxide (Sigma) solution in phosphate buffer solution for 2 h, dehydrated in serial alcohol solution, and embedded in Epon. Embedded tissues were then placed at +70° C. during 3 days of polymerization. Transverse sections of 1.5 μm thickness were obtained using a microtome. They were stained with a 1% toluidine blue solution (Sigma) for 2 min, dehydrated and mounted in Eukitt.
Analysis was performed on the entire surface of the nerve section using a semi-automated digital image analysis software (Biocom, France). Once extraneous objects had been eliminated, the software reported the total number of myelinated fibers. The number of degenerated fibers was then counted manually by an operator. Myelinated fibers without axons, redundant myelin and fibers showing sheaths with too large thickness in respect to their axonal diameter were considered as fibers undergoing processes of degeneration. The number of non-degenerated fibers was obtained by subtraction of the number of degenerated fibers.
Morphological analysis was performed only on fibers considered as non-degenerated. For each fiber, the axonal and myelin sizes were reported in surface area (μm^2). These two parameters were used to calculate the equivalent area of g-ratio (axonal diameter/fiber diameter) of each fiber (i.e., [A/(A+M)]^0.5, A=axonal area, M=myelin area), indicative of the relative myelin sheath thickness.
In addition, a 5-10 mm diameter area of skin was punch-biopsied from the hindpaw. Skin samples were immediately fixed overnight in paraformaldehyde at 4° C., incubated (overnight) in 30% sucrose in 0.1 M PBS for cryoprotection, embedded in OCT and frozen at −80° C. until cryocut.
50 μm-thick cryosections were then cut vertical to the skin surface with a cryostat. Free-floating sections were incubated for 7 days in a bath of rabbit anti-protein gene product 9.5 (1:10000; Ultraclone, Isle of Man, UK) at 4° C. The sections were then processed to reveal immunoreactivity according to the ABC peroxidase method. Briefly, they were incubated in for 1 h with biotinylated […] antibody (1:200), then 30 min in the avidin biotinylated complex at room temperature. Peroxidase activity was visualized using DAB system. Sections were then counterstained with eosin or hematoxylin. Sections were dehydrated, clear with bioclear and mounted on eukitt. Photos of microscope fields were performed at 20× power magnification view using Nikon digital camera at focal distance of 12.9 mm. The number of intra-epidermal nerves on 3 microscope fields of […] (544×408 μm) each was counted by the experimenter on computer screen.
(§1) Global analysis of the data was performed using one factor or repeated measure analysis of variance (ANOVA) and one-way ANOVA. When ANOVA indicated significant difference, Fisher Protected Least Significant Difference was used as post-hoc test to compare experimental groups with the group of diabetic rats treated with the vehicle. The level of significance was set at p≦0.05. Results are expressed as mean ±standard error of the mean (s.e.m.).

Experiment [2] concerns STZ-rats. As to the kind of experiment: STZ diabetic neuropathy, electromyography (CMAP latency, SNCV). As to conditions: D25 post-STZ (similar profile at D40), IL-6 10 μg/kg s.c.; for sensory nerve conduction velocity (SNCV) of diabetic rats: SDF-1α 10, 30, 100 μg/kg (best effect 10 and 30 μg/kg); for CMAP latency of diabetic rats vs vehicle-treated diabetic rats: SDF-1α 10, 30, 100 μg/kg. Here is the method:
(§2) Eight week-old male Sprague Dawley rats (Janvier, Le Genest Saint Isle, France) were randomly distributed in 6 experimental groups (n=10) as shown below.
(§3) Diabetes was induced by intravenous injection of a buffered solution of streptozotocin (Sigma, L'Isle d'Abeau Chesnes, France) at a dose of 55 mg/kg. STZ was prepared in 0.1 mol/l citrate buffer pH 4.5. Control group received an equivalent volume of citrate buffer. The day of STZ injection was considered as D0.
(§4) Treatment with SDF-1α, with IL-6 or their matched vehicle was performed on daily basis from D11 to D40.
Planning of Experiments • Day −7: baseline (EMG) • Day 0: induction by the streptozotocin • Day 7: glycemia monitoring • Day 11: Onset of the treatment • Day 20: Von Frey test • Day 25: EMG monitoring • Day 40: EMG monitoring and HP 52° C. test • Day 41: sciatic nerves and skin biopsy samples were taken off for the histomorphometric analysis.
Electrophysiological recordings were performed using electromyograph (Keypoint, Medtronic, Boulogne-Billancourt, France). Rats were anaesthetized by intraperitoneal injection (IP) of 60 mg/kg ketamine chlorhydrate (Imalgene 500®, Rhône Mérieux, Lyon. France) and 4 mg/kg xylazin (Rompum 2%, Bayer Pharma, Kiel, Germany). The normal body temperature was maintained at […] with a heating lamp and controlled by a contact thermometer (Quick, Bioblock Scientific, Illkirch, France) placed on the tail surface.
Compound muscle action potential (CMAP) was recorded in the gastrocnemius muscle after stimulation of the sciatic nerve. A reference electrode and an active needle were placed in the hindpaw. A ground needle was inserted on the lower back of the rat. Sciatic nerve was stimulated with a single 0.2 ms pulse at a supramaximal intensity. The velocity of the motor wave was recorded.
Sensitive nerve conduction velocity (SNCV) was also recorded. The tail skin electrodes were placed as follows: a reference needle inserted at the base of the tail and an anode needle placed 30 mm away from the reference needle towards the extremity of the tail. A ground needle electrode was inserted between the anode and reference needles. The caudal nerve was stimulated with a series of 20 pulses (for 0.2 ms) at an intensity of 12.8 mA. The velocity was expressed in m/s.
as §1

For experiment [3], the system named is STZ-rats. As to the kind of experiment: Von Frey filament test in STZ diabetic rats. The note with it: day 20 post-STZ; SDF-1α 10, 30, 100 μg/kg, IL-6 10 μg/kg s.c. Here is the method:
as §2
Diabetes was induced by intravenous injection of a buffered solution of streptozotocin (Sigma, L'Isle d'Abeau Chesnes, France) at a dose of 55 mg/kg. STZ was prepared in 0.1 mol/l citrate buffer pH 4.5. The control group received an equivalent volume of citrate buffer. The day of STZ injection was considered as D0.
Treatment with SDF-1α with IL-6 or their matched vehicle was performed on daily basis from D11 to D40.
The rat was placed on a metallic grid floor. The nociceptive testing was done by inserting the Von Frey filament (Bioseb, France) through the grid floor and applying it to the plantar surface of the hind paw. A trial consisted of several applications of the different von Frey filaments (at a frequency of 1-1.5 s). The Von Frey filaments were applied from filament 10 g to 180 g. The pressure that produces a brisk withdrawal of hind paw was considered as threshold value. Cuttoff value was set to 180 g.

The nature of experiment [4]: Body weight in streptozotocin (STZ) diabetic rats. As to conditions: daily s.c. D11 to D40 post-STZ; SDF-1α 10, 30, 100 μg/kg, IL-6 10 μg/kg. Here is the method: as §2, §3, §4
The mark [5] stands for this setting: SDF-1α 10, 30, 100 μg/kg, IL-6 10 μg/kg s.c.
[6] abbreviates: SDF-1α especially 10 or 30 μg/kg, IL-6 10 μg/kg s.c.

As for “IL-6: reference (positive) control compound in nerve crush and STZ models [reference compound]”, in the experiment with STZ-rats [1] (setting [5]), the “number of degenerated fibers in the sciatic nerve” value (from here on “number of degenerated fibers”) is “significantly reduced population of degenerated fibers” and the “density of intra-epidermal nerve fibers” value is reported as “markedly prevented”. The “g-ratio (relative myelin thickness) vs STZ/Vehicle group” value in the experiment with STZ-rats [1] (setting [6]) is on record as “significant reduction”. Also, in the experiment with STZ-rats [2], the “sensory nerve conduction velocity (SNCV) of diabetic rats” value is recorded as “significantly improved” and the “CMAP latency of diabetic rats vs vehicle-treated diabetic rats” value is “significant reduction”. In addition, the “threshold value in Von Frey test vs vehicle-treated diabetic rats” value in the experiment with STZ-rats [3] is “significant increase”. Besides, in experiment [4], the “body weight of diabetic rats” value is listed as “slight but significant increase”.

Regarding “SDF-1α: Human recombinant chemokine SDF-1α (SEQ ID NO: 1), produced in house, expressed in E. Coli cells”, the “g-ratio (relative myelin thickness) vs STZ/Vehicle group” value in the experiment with STZ-rats [1] (100 μg/kg s.c.) is given as “did not reach the significance level”. Further, in the experiment with STZ-rats [1] (setting [5]), the “number of degenerated fibers” value is given as “reduction of degenerated fibers population” and the “density of intra-epidermal nerve fibers” value is on record as “significantly greater density”. For the same substance, the “g-ratio (relative myelin thickness) vs STZ/Vehicle group” value in the experiment with STZ-rats [1] (setting [6]) is “significantly reduced”. Besides, the “number of degenerated fibers” value in the experiment with STZ-rats [1] (lowest dose 10 μg/kg s.c. (best effect)) was “reached the significance level”. For the same substance, in the experiment on STZ-rats [2], the “sensory nerve conduction velocity (SNCV) of diabetic rats” value is “significantly improved” and the “CMAP latency of diabetic rats vs vehicle-treated diabetic rats” value is listed as “significant reduction”. In addition, the “threshold value in Von Frey test vs vehicle-treated diabetic rats” value in the experiment on STZ-rats [3] is “significant increase”. Besides, the “body weight of diabetic rats” value in experiment [4] was “slight but significant increase”.
